Results on 3 molecules are retold here after patent publication US7648967B2, “Mutagenic nucleoside analogs for the treatment of viral disease” (priority 2001, dated 2010).

One may read the EC50 as the concentration at which the effect is half-maximal. A word on the EC90: it is the point of the concentration-response curve where the effect stands at 90%. Read a high EC90 as weaker potency. For orientation: IC50 means the concentration that inhibits the measured activity by half. Low readings indicate greater potency, high ones weaker potency.

Where two headings read alike, the source gives them in different places.

Test [1] concerns BVDV. Put plainly: Antiviral activity against BVDV by passaging virus in BT cells (CPE and viral titer). The test is classed as cell-based, bovine viral diarrhea virus. The conditions noted are these: for viral replication: after a single passage. How it is done: (§1) Cytotoxicity was assayed using graded amounts of nucleoside analog in CV-1 cells or BT cells. 100 pfu of virus was inoculated in 10^5 CV-1 cells (MV) or BT cells (BVDV). Antiviral activity against MV or BVDV (an HCV surrogate) was tested by passaging the virus in the presence or absence of analog.
(§2) In screening experiments, replication of MV or BVDV was assessed by cytopathic effect (CPE) and viral titer after growth in cells for three to four days in the presence or absence of drug. […] Experiments were performed in triplicate (see FIGS. 2 and 4).

Test [2] deals with measles virus (MV). Put plainly: Sequencing of MV clones (matrix and polymerase fragments) for viral mutagenesis. The test is classed as cell-based. The conditions noted are these: 0.15 mM, passage 4, 1 kb matrix and 1.7 kb polymerase fragments, vs DMSO control. The protocol: Fragment of 1 kb of matrix gene and 1.7 kb of polymerase of cones MV at passage 4, MV treated with 0.15 mM 5-formyl uridine vs. DMSO control.
(§3) For 5-formyl-uridine, sequencing was performed to confirm that viral extinction was due to viral mutagenesis by the nucleoside. Clones of MV were selected from treated and control virus at passage 4 and a 1 kb fragment of the matrix and a 1.7 kb fragment of the polymerase were sequenced. […] A fragment of the BVDV glycoprotein was also sequenced, in which the BVDV virus was treated with 2 mM 5-formyl-uridine.

The test system of another test is CV-1 cells or BT cells. Briefly: Cytotoxicity with graded amounts of nucleoside analog. The test is classed as cell-based. To be noted: Cercopithecidae, cell line (CV-1 or BT) not specified. The protocol: as §1
The test system of test [3] is measles virus (MV). Briefly: Antiviral activity against MV by passaging virus in CV-1 cells (CPE and viral titer). The test is classed as cell-based. How it is done: as §1, §2
In test [4] the test system is BVDV. Briefly: Sequencing of BVDV glycoprotein fragment for viral mutagenesis. The test is classed as cell-based, bovine viral diarrhea virus. The conditions noted are these: 2 mM, passage 1, BVDV glycoprotein fragment, vs DMSO control. How it is done: Fragment of 1 kb glycoprotein gene of clones BVDV at passage 1, BVDV treated with 2 mM 5-formyl-uridine vs. DMSO control.
as §3

The mark [5] stands for this setting: Bovine viral diarrhea virus isolates and strains.
Where [6] appears, read: concentration of 0.5 mM, within one passage.

For `Nc1nc(N)c2ncn([C@@H]3O[C@H](CO)[C@@H](O)[C@H]3O)c2n1` [2,6 diaminopurine riboside], in the test on BVDV [1] (BVDV), the viral replication result is on record as “inhibited”. Also, the EC50 with BVDV [1] (BVDV, read-out: EC50) was found to be 70 µM.

As to `O=Cc1cn([C@@H]2O[C@H](CO)[C@@H](O)[C@H]2O)c(=O)[nH]c1=O` [5-formyl-uridine], the “mutation rate above the spontaneous mutation rate of MV” value in the test with measles virus (MV) [2] is 1.6 fold. In the test on BVDV [1] (setting [5]), this molecule returned an EC50 of 150 µM and an EC90 of 400 µM. The “inhibition of BVDV replication” value in the test on BVDV [1] (setting [6]) is “completely inhibited”. This molecule registered an IC50 in the test on CV-1 cells or BT cells of over 1000 µM. Further, in the test on measles virus (MV) [3] (Measles morbillivirus, CV-1), the EC50 amounted to 150 µM and the 90% effect level (EC90) was put at 300 µM. In the test on measles virus (MV) [3] (setting [6]), the “inhibition of MV replication” value is listed as “completely inhibited”. For the same molecule, the increase in mutation with BVDV [4] was found to be 3.75 fold.

On to `Nc1[nH]c(=O)nc2c1ncn2[C@@H]1O[C@H](CO)[C@@H](O)[C@H]1O` [isoguanosine], for which the viral replication entry in the test with BVDV [1] (BVDV) was “inhibited”. In addition, the midpoint of the response in the test with BVDV [1] (setting [5]), the EC50, lay at 80 µM.
